Results reported in US6372183B1 (priority 1991, dated 2002).
Like-named read-outs stand apart in the source and are kept apart here.

Columns and labels:
[1] = tested on: muscarinic acetylcholine receptors (MAChRs)
[2] = tested on: nicotinic acetylcholine receptors (NAChR)
Method: The cells were plated and loaded with the fluorescent dye Fluo-3 and the assays were carried out substantially as described in the modified method of Example 3A except that the nicotinic receptors of the cells were activated.

[3] = tested on: voltage-dependent calcium channels
Method: (§1) SHSY5Y cells, induced for six days with 10 μM retinoic acid (Sigma), and IMR32 cells, induced for ten days with 1 mM dibutyryl cAMP (dbcAMP) and 2.5 μM bromodeoxyuridine (BrdU) (both from Boehringer-Mannheim, Indianapolis, IN) were treated with various calcium channel interactive drugs before kCl depolarization and measurement of fluorescence.

[4] = tested on: voltage-dependent calcium channels; remark: listed apart in the source
Method: as §1

[5] = biological target: human neuronal calcium channel α1D, α2 and β subunits (Homo sapiens, UniProt Q01668); details: 13old cells; 50 mM KCl
Chain of human neuronal calcium channel α1D, α2 and β subunits (Q01668 whole entry): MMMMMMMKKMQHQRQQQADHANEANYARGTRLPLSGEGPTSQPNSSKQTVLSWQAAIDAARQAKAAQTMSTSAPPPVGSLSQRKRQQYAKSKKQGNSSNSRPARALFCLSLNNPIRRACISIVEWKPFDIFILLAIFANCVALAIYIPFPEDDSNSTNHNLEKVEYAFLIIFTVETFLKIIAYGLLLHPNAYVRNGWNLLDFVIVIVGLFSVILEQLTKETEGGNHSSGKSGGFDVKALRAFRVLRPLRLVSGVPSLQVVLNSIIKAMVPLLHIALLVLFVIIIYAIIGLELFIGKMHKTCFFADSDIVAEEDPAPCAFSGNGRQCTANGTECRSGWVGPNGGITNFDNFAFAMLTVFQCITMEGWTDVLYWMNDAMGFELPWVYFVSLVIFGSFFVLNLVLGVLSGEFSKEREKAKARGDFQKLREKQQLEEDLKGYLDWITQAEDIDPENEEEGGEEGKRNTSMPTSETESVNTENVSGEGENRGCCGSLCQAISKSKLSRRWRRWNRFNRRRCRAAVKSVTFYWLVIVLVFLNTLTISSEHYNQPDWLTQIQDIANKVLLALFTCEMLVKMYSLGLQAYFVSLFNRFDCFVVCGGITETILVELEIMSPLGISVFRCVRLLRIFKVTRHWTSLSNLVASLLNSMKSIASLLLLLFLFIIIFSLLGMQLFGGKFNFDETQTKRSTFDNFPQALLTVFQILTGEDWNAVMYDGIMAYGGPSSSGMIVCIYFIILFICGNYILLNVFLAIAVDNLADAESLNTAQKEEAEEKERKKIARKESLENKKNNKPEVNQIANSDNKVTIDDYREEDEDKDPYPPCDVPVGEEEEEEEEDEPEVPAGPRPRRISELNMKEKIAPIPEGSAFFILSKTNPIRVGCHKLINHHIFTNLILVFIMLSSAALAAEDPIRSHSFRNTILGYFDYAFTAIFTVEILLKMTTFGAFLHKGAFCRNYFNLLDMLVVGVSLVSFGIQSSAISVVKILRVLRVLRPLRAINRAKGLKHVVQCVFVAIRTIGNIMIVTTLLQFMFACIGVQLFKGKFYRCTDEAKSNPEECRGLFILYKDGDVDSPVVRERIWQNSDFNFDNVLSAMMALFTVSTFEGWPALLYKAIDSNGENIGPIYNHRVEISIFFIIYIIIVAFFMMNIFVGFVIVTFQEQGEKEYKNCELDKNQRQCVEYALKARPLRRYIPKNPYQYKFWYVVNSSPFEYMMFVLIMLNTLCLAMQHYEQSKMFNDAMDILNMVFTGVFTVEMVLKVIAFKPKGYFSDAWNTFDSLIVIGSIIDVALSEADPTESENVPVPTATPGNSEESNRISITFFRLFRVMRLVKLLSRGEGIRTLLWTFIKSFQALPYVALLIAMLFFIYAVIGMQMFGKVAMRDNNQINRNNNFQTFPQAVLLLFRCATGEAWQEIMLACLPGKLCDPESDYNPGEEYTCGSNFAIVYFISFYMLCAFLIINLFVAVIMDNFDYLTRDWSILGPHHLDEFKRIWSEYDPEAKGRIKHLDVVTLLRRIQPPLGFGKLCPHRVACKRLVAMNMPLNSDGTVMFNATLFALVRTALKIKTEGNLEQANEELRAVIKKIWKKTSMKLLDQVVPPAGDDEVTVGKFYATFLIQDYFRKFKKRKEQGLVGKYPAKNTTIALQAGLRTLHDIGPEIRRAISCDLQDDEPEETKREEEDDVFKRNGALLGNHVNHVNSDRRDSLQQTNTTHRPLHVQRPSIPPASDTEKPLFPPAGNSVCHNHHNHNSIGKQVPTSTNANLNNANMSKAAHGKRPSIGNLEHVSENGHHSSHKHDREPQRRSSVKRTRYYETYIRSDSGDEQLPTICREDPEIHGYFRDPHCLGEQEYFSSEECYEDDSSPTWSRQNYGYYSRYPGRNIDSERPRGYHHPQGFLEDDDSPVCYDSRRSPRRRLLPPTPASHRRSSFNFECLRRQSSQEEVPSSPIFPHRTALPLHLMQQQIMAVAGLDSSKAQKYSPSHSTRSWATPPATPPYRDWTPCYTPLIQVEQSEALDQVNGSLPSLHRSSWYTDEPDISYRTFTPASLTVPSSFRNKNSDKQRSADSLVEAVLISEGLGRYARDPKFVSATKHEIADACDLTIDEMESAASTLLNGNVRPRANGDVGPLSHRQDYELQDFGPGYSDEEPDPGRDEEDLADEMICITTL
Method: The assays were conducted using the fully automated version of the assay, as described for analysis of calcium channels in positive control IMR32 and SHSY5Y cells. Fluorescence was measured prior to addition of KCl to the cells to record pre-reagent fluorescence, i.e., noise, fluorescence. Signal fluorescence is the maximal fluorescence recorded after addition of KCl to the cells.
The automated assays were performed as described for analysis of calcium channel activity of IMR32 and SHSY5Y cells. For each dose-dependence assay, different wells of the microtiter plate received different concentrations of the agonist or antagonist, the background fluorescence was measured, and. […] Repeated fluorescence measurements were made before and after KCl addition and the values were recorded. A total of five fluorescence readings were taken before KCl addition. […] The plate was then automatically repositioned at the fluorescence measuring position (a delay of two seconds was measured between reagent addition and the first fluorescence measurement after reagent addition) and 125 fluorescence measurements were taken and values were recorded. […]
Dose-response curves were generated from the fluorescence data. In constructing these curves, the fluorescence value recorded in the presence of each concentration of compound was plotted as the percent maximum fluorescence vs. concentration. […]

## CN1[C@@H]2C[C@@H](OC(=O)[C@H](CO)c3ccccc3)C[C@H]1[C@@H]1O[C@@H]12 [scopolamine]
[1]
  Fluorescence S/N ratio: 1.0

## CN1CCCC1c1cccnc1 (stereo not shown) [nicotine]
[2]; IMR32 cells, 200 μM agonist alone, Equation 2
  Fluorescence S/N ratio: 2.3

## D-tubocurarine [DTC]
[2]
  Fluorescence S/N ratio: 1.0

## Bay K 8644 [BayK 8644]
[3]; SHSY5Y, 50 mM KCl and 1 μM compound
  Fluorescence Signal to Noise Ratio: 2.7
[4]; IMR32, 50 mM KCl and 1 μM compound
  Fluorescence Signal to Noise Ratio: 2.5
[5]
  Concentration at which potentiation of the fluorescence response to KCl was maximal: 100 nM

## CNC1(C)C2CCC(C2)C1(C)C (stereo not shown) [mecamylamine]
[2]
  Fluorescence S/N ratio: 1.0

## C[N+](C)(C)CCCCCC[N+](C)(C)C [hexamethonium]
[2]
  Fluorescence S/N ratio: 1.0

## omega-CgTx
[5]
  Inhibition of the KCl-induced fluorescence increase (in words): did not completely inhibit

## KCl [KC1]
[3]; SHSY5Y (retinoic acid induced), 50 mM KCl alone
  Fluorescence Signal to Noise Ratio: 1.9
[4]; IMR32 (dbcAMP/BrdU induced), 50 mM KCl alone
  Fluorescence Signal to Noise Ratio: 2.3

## cadmium
[3]; SHSY5Y, 50 mM KCl and 200 μM compound
  Fluorescence Signal to Noise Ratio: 1.0
[4]; IMR32, 50 mM KCl and 200 μM compound
  Fluorescence Signal to Noise Ratio: 1.0
